In brackets after ≈: the same amount, converted by molar mass.
Experiments:
[1] = Solubility of compound in phosphate buffer at pH 7.4 incubated for 24 hrs under shaking condition by HPLC analysis; type: physicochemical
[2] = MRT (0 to infinity) in nude BALB/c mouse serum at 8.0 mg/kg incubated up to 9 hrs, iv administered […] by LC-MS/MS analysis; type: ADME, organism-based
LoVo = assay: Cytotoxicity against human LoVo assessed as reduction in cell viability measured after 72 hrs by MTT assay; type: functional, cell-based
[3] = Toxicity in NPG mouse xenografted with human Raji cells assessed as body weight loss at 2 mg/kg, ip measured on the day 1; type: organism-based; conditions: in vivo
Raji [4] = assay: Antitumor activity against NPG mouse xenografted with human Raji cell assessed as decrease in tumor volume at 8 mg/kg, ig measured after 5 day; type: functional
Raji [5] = assay: Antitumor activity against NPG mouse xenografted with human Raji cell assessed as decrease in tumor volume at 4 mg/kg, ig measured after 5 day; type: functional
HCT-116 [6] = assay: Induction of apoptosis in human HCT-116 cells assessed as early apoptotic cells level at 0.001 uM incubated for 24 hrs by Annexin V-FITC/PI staining based flow cytometry (reference value: 0.17%); type: functional
[7] = Toxicity in NPG mouse xenografted with human Raji cells assessed as body weight loss at 4 mg/kg, ig measured after 5 day; type: organism-based; conditions: in vivo, po, 120 h
Raji [8] = assay: Antitumor activity against NPG mouse xenografted with human Raji cell assessed as decrease in tumor volume at 8 mg/kg, ig measured on the 1 day; type: functional
[9] = Tmax in nude BALB/c mouse serum at 8.0 mg/kg incubated up to 9 hrs, iv administered […] by LC-MS/MS analysis; type: ADME, organism-based
A549 = assay: Cytotoxicity against human A549 assessed as reduction in cell viability measured after 72 hrs by MTT assay; type: functional, cell-based; conditions: A549, 72 h
[10] = Solubility of compound in phosphate buffer at pH 4.5 incubated for 24 hrs under shaking condition by HPLC analysis; type: physicochemical
[11] = Toxicity in Kunming mouse assessed as mortality at 250 mg/kg, po measured once every 30 mins upto 10 days; type: organism-based; conditions: in vivo, 0.5 h
HCT-116 [12] = assay: Cytotoxicity against human HCT-116 assessed as reduction in cell viability measured after 72 hrs by MTT assay; type: functional, cell-based; conditions: HCT-116, 72 h
[13] = Oral bioavailability in nude BALB/c mouse serum at 8.0 mg/kg incubated up to 9 hrs, via gavage by LC-MS/MS analysis; type: ADME, organism-based
HCT-116 [14] = assay: Induction of apoptosis in human HCT-116 cells assessed as early apoptotic cells level at 0.03 uM incubated for 24 hrs by Annexin V-FITC/PI staining based flow cytometry (reference value: 0.17%); type: functional
HCT-116 [15] = assay: Antitumor activity against human HCT-116 cells xenografted in nude BALB/c mouse assessed as tumor growth inhibition at 0.5 mg/kg, ip dosed once the other day for 24 days; type: functional; conditions: HCT-116, ip, 576 h, time 24 day, read-out: TGI
[16] = Toxicity in NPG mouse xenografted with human Raji cells assessed as body weight loss at 4 mg/kg, ip measured on the day 1; type: organism-based; conditions: in vivo
Raji [17] = assay: Antitumor activity against NPG mouse xenografted with human Raji cell assessed as decrease in tumor volume at 4 mg/kg, ip measured on the 1 day; type: functional
Raji [18] = assay: Antitumor activity against NPG mouse xenografted with human Raji cell assessed as tumor growth inhibition at 2 mg/kg, ip measured after 5 day; type: functional; conditions: 120 h, read-out: TGI
[19] = Clearance in nude BALB/c mouse serum at 8.0 mg/kg incubated up to 9 hrs, iv administered […] by LC-MS/MS analysis; type: ADME, organism-based
[20] = Toxicity in Kunming mouse assessed as mortality at 200 mg/kg ip measured once every 30 mins upto 10 days; type: organism-based; conditions: in vivo, 0.5 h
HeLa = assay: Cytotoxicity against human Hela assessed as reduction in cell viability measured after 72 hrs by MTT assay; type: functional, cell-based
[21] = Toxicity in Kunming mouse assessed as mortality at 150 mg/kg ip measured once every 30 mins upto 10 days; type: organism-based; conditions: in vivo, 0.5 h
[22] = Half life in nude BALB/c mouse serum at 8.0 mg/kg incubated up to 9 hrs, iv administered […] by LC-MS/MS analysis; type: ADME, organism-based
[23] = Toxicity in Kunming mouse assessed as mortality at 30 mg/kg, iv measured once every 30 mins upto 10 days; type: organism-based; conditions: in vivo, 0.5 h
NCI-H1975 = assay: Cytotoxicity against human NCI-H1975 assessed as reduction in cell viability measured after 72 hrs by MTT assay; type: functional, cell-based; conditions: NCI-H1975, 72 h
Raji [24] = assay: Antitumor activity against NPG mouse xenografted with human Raji cell assessed as tumor growth inhibition at 4 mg/kg, ig measured after 5 day; type: functional; conditions: po, 120 h, read-out: TGI
Raji [25] = assay: Antitumor activity against NPG mouse xenografted with human Raji cell assessed as tumor growth inhibition at 8 mg/kg, ig measured after 5 day; type: functional; conditions: po, 120 h, read-out: TGI
Raji [26] = assay: Antitumor activity against NPG mouse xenografted with human Raji cell assessed as tumor growth inhibition at 4 mg/kg, ip measured after 5 day; type: functional; conditions: 120 h, read-out: TGI
[27] = Cmax in nude BALB/c mouse serum at 8.0 mg/kg incubated up to 9 hrs, iv administered […] by LC-MS/MS analysis; type: ADME, organism-based; set-up: route intravenous, dose 8 mg/kg, time <=9
[28] = Toxicity in NPG mouse xenografted with human Raji cells assessed as body weight loss at 2 mg/kg, ip measured after 5 day; type: organism-based; conditions: in vivo, 120 h

Work on `CCc1c2c(nc3ccc(OCC(=O)N4CCCCC4)cc13)-c1cc3c(c(=O)n1C2)COC(=O)[C@]3(O)CC` yielded a solubility thermodynamic at 24 h [1] of 19.9 µg/mL (≈ 38.4 µM), an MRT inf [2] of 13.8 min and an IC50 (LoVo) of 0.081 µM. For the same molecule, the Activity [3] was 23.2 g, the Activity (Raji [4]) was 1374 mm3 and the Activity (Raji [5]) was 1203 mm3. The Activity (HCT-116 [6]) was 4.92%, the Activity [7] was 25.8 g and the Activity (Raji [8]) was 956 mm3. It also gave a Tmax [9] of 10.2 min, an IC50 (A549) of 0.011 µM and a solubility thermodynamic at 24 h [10] of 9.86 µg/mL (≈ 19.1 µM). The Activity [11] was “Non-Toxic”, the IC50 (HCT-116 [12]) was 0.003 µM and the bioavailability [13] was 22.4%. The Activity (HCT-116 [14]) was 7.55%, the inhibition in vivo at 0.5 mg/kg (HCT-116 [15]) was 92% and the Activity [16] was 24.8 g. The Activity (Raji [17]) was 1186 mm3, the inhibition in vivo at 2 mg/kg (Raji [18]) was 104% and the clearance [19] was 0.179 mL/min. For the same molecule, the Activity [20] was “Toxic”, the IC50 (HeLa) was 0.125 µM and the Activity [21] was “Non-Toxic”. The half-life [22] was 61.8 min, the Activity [23] was “Non-Toxic” and the IC50 (NCI-H1975) was 0.084 µM. For the same molecule, the inhibition in vivo at 4 mg/kg (Raji [24]) was 33.8%, the inhibition in vivo at 8 mg/kg (Raji [25]) was 81.3% and the inhibition in vivo at 4 mg/kg (Raji [26]) was 136%. For the same molecule, the Cmax [27] was 1630 ng/mL and the Activity [28] was 20.6 g.

Reference: ChEMBL document CHEMBL4706505, “F10, a new camptothecin derivative, was identified as a new orally-bioavailable, potent antitumor agent” (Eur J Med Chem, 2020)
